ChEMBL document CHEMBL4428058, “Hit-to-Lead Studies for the Antimalarial Tetrahydroisoquinolone Carboxanilides” (J Med Chem, 2016)

Key:
Assay type in all cases: ADME, Microsome
[1] = Half life in CD-1 mouse liver microsomes in presence of NADPH by UPLC-MS analysis; conditions: for t1/2: mouse, microsomes
[2] = Drug level in CD-1 mouse liver microsomes treated with (3S,4S)-N-(3-cyanophenyl)-2-isobutyl-1-oxo-3-(thiophen-2-yl)-1,2,3,4-tetrahydroisoquinoline-4-carboxamide
[3] = Drug metabolism in CD-1 mouse liver microsomes assessed as ((3S,4S)-N-(3-hydroxyphenyl)-2-isobutyl-1-oxo-3-(thiophen-2-yl)-1,2,3,4-tetrahydroisoquinoline-4-carboxamide formation
[4] = Drug metabolism in CD-1 mouse liver microsomes assessed as oxidation at N-2 isobutyl group
[5] = Drug level in CD-1 mouse liver microsomes treated with (3S,4S)-N-(3-chloro-4-methoxyphenyl)-2-isobutyl-1-oxo-3-(thiophen-2-yl)-1,2,3,4-tetrahydroisoquinoline-4-carboxamide
[6] = Drug metabolism in CD-1 mouse liver microsomes assessed as (3S,4S)-N-(3-chloro-4-hydroxyphenyl)-2-isobutyl-1-oxo-3-(thiophen-2-yl)-1,2,3,4-tetrahydroisoquinoline-4-carboxamide formation

CC(C)CN1C(=O)c2ccccc2[C@H](C(=O)Nc2ccc(F)c(C#N)c2)[C@H]1c1cn[nH]c1 (racemic)
t1/2 [1]: 19.8 min

CC(C)CN1C(=O)c2ccccc2[C@H](C(=O)Nc2cccc(O)c2)[C@H]1c1cccs1 (relative stereo)
Drug metabolism [2]: Metabolite_Detected

N#Cc1cc(NC(=O)[C@H]2c3ccccc3C(=O)N(CC(F)(F)F)[C@@H]2c2cccnc2)ccc1F (relative stereo) [SJ-733]
t1/2 [1]: 97.8 min

N#Cc1cc(NC(=O)[C@H]2c3ccccc3C(=O)N(CC(F)(F)F)[C@@H]2c2cn[nH]c2)ccc1F (relative stereo)
t1/2 [1]: > 240 min

CC(C)CN1C(=O)c2ccccc2[C@H](C(=O)Nc2cccc(C#N)c2)[C@H]1c1cccs1 (racemic)
Drug metabolism [3]: Metabolite_Detected
Drug metabolism [4]: Metabolite_Detected
t1/2 [1]: 16.8 min

CC(C)CN1C(=O)c2ccccc2[C@H](C(=O)Nc2ccc(F)c(C#N)c2)[C@H]1c1ccc(C#N)s1 (racemic)
t1/2 [1]: 72.6 min

CC(C)CN1C(=O)c2ccccc2[C@H](C(=O)Nc2ccc(O)c(Cl)c2)[C@H]1c1cccs1 (relative stereo)
Drug metabolism [5]: Metabolite_Detected

COc1ccc(NC(=O)[C@H]2c3ccccc3C(=O)N(CC(C)C)[C@@H]2c2cccs2)cc1Cl (racemic)
Drug metabolism [4]: Metabolite_Detected
half-life ([1]; CD-1, mouse, liver microsomes): < 30 min
Drug metabolism [6]: Metabolite_Detected
